Usually IC50 stands for the point on the concentration scale where inhibition reaches its midpoint. In general, half-life refers to the time in which the quantity being followed falls by half. The low end stands for fast loss, the high end for slow loss. For orientation: bioavailability means dose-corrected exposure relative to a reference, in per cent. For orientation: Vd means a proportionality between amount in the body and measured concentration, not a real space. High values mean extensive tissue distribution, low ones confinement near the circulation.

The target in series [1] is T1, Metabotropic glutamate receptor 5 (Homo sapiens, UniProt P41594). The series is described as follows: In vitro potency against calcium flux in Ltk cells expressing human recombinant metabotropic glutamate receptor 5 using fluorescence detection. The format is cell-based. In general terms: A change in cytosolic calcium serves as a functional read-out for many receptors and channels.

Series [2] in a line: Plasma clearance (2 mg/kg, i.v.) was determined in Sprague-Dawley rats. The format is ADME, organism-based. As to conditions: rat, iv, read-out: Clp; call rule not given here.
Series [3] in a line: Half-life (2 mg/kg, i.v.) was determined in Sprague-Dawley rats. The class given is ADME, organism-based. The settings on record: rat, in vivo, iv.
Series [4] in a line: Bioavailability (10 mg/kg, p.o.) in Sprague Dawley rats. The format is ADME, organism-based. The settings on record: rat, in vivo, po.
Another series concerns Rattus norvegicus. The series can be described thus: In vivo receptor occupancy was determined in rats following intravenous dosage at 10 mg/kg. The format is functional.
The nature of series [5]: Volume of distribution (2 mg/kg, iv.) was determined in Sprague Dawley rats; not determined. The class given is ADME, organism-based. The settings on record: rat, in vivo.
In series [6] the target is T1, Metabotropic glutamate receptor 5. The series is described as follows: In vitro potency against calcium flux in Ltk cells expressing human recombinant metabotropic glutamate receptor 5 using fluorescence detection; not active at 10 uM. The format is cell-based.
Series [7] in a line: Volume of distribution (2 mg/kg, iv.) was determined in Sprague Dawley rats. The settings on record: rat, in vivo. The class given is ADME, organism-based.
Series [8] is described as follows: Bioavailability (10 mg/kg, p.o.) was determined in Sprague Dawley rats. The format is ADME, organism-based. As to conditions: rat, in vivo, po.

T1 sequence (P41594 whole entry): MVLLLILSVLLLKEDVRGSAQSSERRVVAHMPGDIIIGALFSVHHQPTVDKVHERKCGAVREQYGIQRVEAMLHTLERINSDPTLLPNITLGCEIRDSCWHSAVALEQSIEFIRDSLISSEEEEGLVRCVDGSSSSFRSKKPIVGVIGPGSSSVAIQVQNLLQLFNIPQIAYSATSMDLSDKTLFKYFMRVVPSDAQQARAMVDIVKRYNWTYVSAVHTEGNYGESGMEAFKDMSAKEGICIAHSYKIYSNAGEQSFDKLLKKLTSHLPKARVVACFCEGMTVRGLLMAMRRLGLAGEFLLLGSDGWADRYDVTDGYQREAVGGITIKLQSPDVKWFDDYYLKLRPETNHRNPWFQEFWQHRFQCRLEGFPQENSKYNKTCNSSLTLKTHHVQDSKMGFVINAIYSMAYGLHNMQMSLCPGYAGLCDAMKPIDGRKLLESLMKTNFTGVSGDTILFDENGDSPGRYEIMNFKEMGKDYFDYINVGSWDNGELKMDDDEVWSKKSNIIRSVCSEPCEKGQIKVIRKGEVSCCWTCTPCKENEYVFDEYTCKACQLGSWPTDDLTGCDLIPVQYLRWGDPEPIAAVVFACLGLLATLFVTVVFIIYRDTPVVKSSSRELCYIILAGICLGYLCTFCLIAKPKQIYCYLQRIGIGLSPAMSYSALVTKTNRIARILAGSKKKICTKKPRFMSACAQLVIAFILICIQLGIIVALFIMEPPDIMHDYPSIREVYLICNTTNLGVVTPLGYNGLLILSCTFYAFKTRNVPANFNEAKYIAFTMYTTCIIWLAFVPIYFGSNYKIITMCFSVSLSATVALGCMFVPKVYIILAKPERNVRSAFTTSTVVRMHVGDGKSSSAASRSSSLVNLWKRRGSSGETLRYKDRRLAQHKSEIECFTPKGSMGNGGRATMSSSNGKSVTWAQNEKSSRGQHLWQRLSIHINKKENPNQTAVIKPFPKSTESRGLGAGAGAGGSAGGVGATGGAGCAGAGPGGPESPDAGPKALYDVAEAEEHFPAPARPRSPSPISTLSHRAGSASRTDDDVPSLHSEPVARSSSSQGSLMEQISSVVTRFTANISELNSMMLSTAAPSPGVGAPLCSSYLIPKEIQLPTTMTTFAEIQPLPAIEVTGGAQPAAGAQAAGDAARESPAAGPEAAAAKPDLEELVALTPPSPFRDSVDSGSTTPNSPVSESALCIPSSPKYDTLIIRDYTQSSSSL

Turning to `CCOc1cc(-c2cccnc2)cnc1Nc1cccc(C)n1`, the IC50 in series [1] worked out at 12 nM. Moreover, the clearance in series [2] turned out to be 50 mL/min/kg. In series [3], the half-life is 1 h. The molecule further returned a bioavailability in [4] of 38%.

For `CCOc1cc(-c2cncnc2)cnc1Nc1cccc(C)n1`, the IC50 in series [1] was 36 nM. For the same molecule, the clearance in series [2] is 79 mL/min/kg. Further, the Receptor occupancy with Rattus norvegicus is given as 79%. This molecule also gave a half-life in series [3] of 0.6 h. The molecule also had a bioavailability in [4] of 67%. In [5], this molecule displayed a Vd of 2.3 L/kg.

With `Cc1cccc(Nc2ncccc2C)n1`, the IC50 entry in series [6] is “Not Active”.

For `CCOc1cccnc1Nc1ccccn1`, the IC50 in series [1] is 138 nM. For the same molecule, the clearance in [2] came out at 78 mL/min/kg. This molecule also gave a Vd in series [7] of 2.9 L/kg. Further, in [3], the half-life was 0.8 h. Besides, the bioavailability in series [4] was 16%.

On to `CCOc1cccnc1Nc1cccc(C(F)(F)F)n1`, for which the IC50 in [1] stood at 1900 nM.

`CCOc1cccnc1Nc1cccc(OC)n1`: the IC50 in [1] was determined as 556 nM.

In the case of `CCOc1cccnc1Nc1cccc(C(=O)OC)n1`, in series [1], the IC50 turned out to be 6200 nM.

As for `Cc1cccc(Nc2ncccc2O)n1`, the IC50 result in [6] was “Not Active”.

For the molecule `COc1cccnc1Nc1cccc(C)n1`, the IC50 in series [1] was 458 nM.

Turning to `CCOc1ncccc1Nc1cccc(C)n1`, in series [6], the IC50 entry was “Not Active”.

With `Cc1cccc(Nc2ncccc2C#N)n1`, the IC50 entry in [6] was “Not Active”.

As to `CCOc1cc(-c2cnccc2C)cnc1Nc1cccc(C)n1`, the 50% inhibitory concentration (IC50) in series [1] is 45 nM. For the same molecule, the clearance in series [2] was determined as 105 mL/min/kg. This molecule had a half-life in series [3] of 0.7 h. In [4], this molecule registered a bioavailability of 8%. The same molecule registered a Vd in [5] of 4.7 L/kg.

With `Cc1cccc(Nc2ncccc2OCc2ccccc2)n1`, the IC50 in series [1] is 870 nM.

In the case of `CCCOc1cccnc1Nc1cccc(C)n1`, in series [1], the IC50 stood at 1600 nM.

With `Cc1cccc(Nc2ncccc2-c2ccccc2)n1`, the IC50 entry in series [6] was “Not Active”.

Consider `CCOc1cc(C#N)cnc1Nc1cccc(C)n1`, for which the IC50 in series [1] is 46 nM. The clearance in series [2] was determined as 90 mL/min/kg. For the same molecule, the Vd in [7] turned out to be 7 L/kg. For the same molecule, the half-life in series [3] was 1.6 h. Besides, the bioavailability in series [4] came to 13%.

On to `CCOc1cc(-c2ccc(C)cc2)cnc1Nc1cccc(C)n1`, for which, in [1], the IC50 turned out to be 513 nM.

Regarding `CCOc1cc(-c2cccnc2C#N)cnc1Nc1cccc(C)n1`, in series [1], the IC50 is 80 nM.

With `CCOc1cc(C)cnc1Nc1cccc(C)n1`, in [1], the IC50 was 119 nM.

For the molecule `CCOc1ccc(C)nc1Nc1cccc(C)n1`, the IC50 entry in [6] was “Not Active”.

For the molecule `CCOc1cc(-c2ccccc2C#N)cnc1Nc1cccc(C)n1`, the IC50 in series [1] is 37 nM.

For `CSc1cccnc1Nc1cccc(C)n1`, the IC50 in series [1] was 790 nM.

On to `COC(=O)c1cccnc1Nc1cccc(C)n1`, for which the IC50 result in series [6] is “Not Active”.

Regarding `CCOc1cc(-c2ccsn2)cnc1Nc1cccc(C)n1`, the IC50 in series [1] came to 243 nM.

With `CCOc1ccccc1Nc1cccc(C)n1`, in [6], the half-maximal inhibitory concentration (IC50) result was “Not Active”.

Turning to `CCOc1cc(Cl)cnc1Nc1cccc(C)n1`, the half-maximal inhibitory concentration (IC50) in series [1] worked out at 17 nM.

As for `CCNc1cccnc1Nc1cccc(C)n1`, the IC50 in [1] amounted to 3000 nM.

On to `CCCc1cccnc1Nc1cccc(C)n1`, for which, in [1], the IC50 is 394 nM. Moreover, the clearance in series [2] turned out to be 320 mL/min/kg. Further, the half-life in series [3] was 1 h.

For `CCOc1c(C)ccnc1Nc1cccc(C)n1`, in series [1], the IC50 was determined as 2700 nM.

Turning to `Cc1cccc(Nc2ncccc2OC(C)C)n1`, in [1], the IC50 stood at 1000 nM.

Consider `CCOc1cc(-c2ccccc2)cnc1Nc1cccc(C)n1`, for which the IC50 in series [1] was determined as 267 nM.

In the case of `CCOc1cc(Oc2cccnc2)cnc1Nc1cccc(C)n1`, the IC50 in series [1] came out at 18 nM. Besides, the clearance in series [2] worked out at 52 mL/min/kg. The Receptor occupancy in the series on Rattus norvegicus came to 82%. The half-life in series [3] was 1.2 h. In series [5], this molecule yielded a volume of distribution (Vd) of 3.7 L/kg.

Turning to `CCOc1cc(-c2cccc(F)c2)cnc1Nc1cccc(C)n1`, the IC50 in series [1] was 126 nM. The clearance in [2] came to 93 mL/min/kg. The same molecule returned a Vd in series [7] of 3 L/kg. This molecule gave a half-life in [3] of 0.5 h. The same molecule returned a bioavailability in series [4] of 19%.

`CCOc1cc(Br)cnc1Nc1cccc(C)n1`: in [1], the IC50 is 47 nM.

As to `Cc1cccc(Nc2ncccc2-c2cccnc2)n1`, the IC50 entry in series [6] is “Not Active”.

In the case of `CCOc1cc(-c2ccccn2)cnc1Nc1cccc(C)n1`, the IC50 in series [1] was 193 nM. Moreover, the clearance in series [2] came out at 124 mL/min/kg. In addition, the Vd in series [7] worked out at 6.1 L/kg. The same molecule gave a half-life in series [3] of 1 h. The molecule also returned a bioavailability in series [4] of 0%.

As for `CCOc1nccnc1Nc1cccc(C)n1`, the IC50 in series [1] came to 497 nM. For the same molecule, the clearance in series [2] turned out to be 102 mL/min/kg. The half-life in [3] was 1 h.

In series [8], `CCOc1cccnc1Nc1cccc(C)n1` had a bioavailability of 11%. Further, the IC50 in series [1] was 40 nM. Further, the clearance in series [2] turned out to be 16 mL/min/kg. Moreover, the Vd in [7] is 1.2 L/kg. The half-life in [3] was 2.1 h.

For `COc1cccc(F)c1Nc1cccc(C)n1`, in series [6], the IC50 result is recorded as “Not Active”.
